Results: US9028858B2 (Coloplast A/S, priority 2003, dated 2015)
Read-outs that look alike come from different tables or passages of the source.

Tested on: 7 different bacterial strains
Conditions: mid-log phase, absorbance at 600 nm, 7 strains pooled
From the text: The obtained data from each specific bacterial strain were pooled.

For `OO` [Std H2O2, hydrogen peroxide], the “bacterial growth, Mean (% of control)” value (0.00000256% hydrogen peroxide) was 110.0 % of control, the “bacterial growth, Mean (% of control)” value (0.0000128% hydrogen peroxide) was 99.8 % of control and the “bacterial growth, Mean (% of control)” value (0.000064% hydrogen peroxide) was 97.9 % of control. The “bacterial growth, Mean (% of control)” value (0.000320% hydrogen peroxide) was 96.2 % of control, the “bacterial growth, Mean (% of control)” value (0.0016% hydrogen peroxide) was 87.3 % of control and the “bacterial growth, Mean (% of control)” value (0.008% hydrogen peroxide) was 63.0 % of control. For the same molecule, the “bacterial growth, Mean (% of control)” value (0.04% hydrogen peroxide) was 35.6 % of control, the “bacterial growth, Mean (% of control)” value (0.2% hydrogen peroxide) was 16.0 % of control and the “bacterial growth, Mean (% of control)” value (1.0% hydrogen peroxide) was 11.7 % of control.
